From PMC5218480 (PLoS ONE, 2017)

Test system: MV-4-11 cells
Experiment: Gene expression microarray analysis (Affymetrix PrimeView) and GSEA
Type: cell-based, human
Parameters: RFU PODN (11730768_x_at) / Fold change /veh PODN (11730768_x_at) / RFU LINC00158 (11744669_a_at) / Fold change /veh LINC00158 (11744669_a_at) / RFU DUSP10 (11751237_a_at) / Fold change /veh DUSP10 (11751237_a_at) / RFU ID3 (11757404_x_at) / Fold change /veh ID3 (11757404_x_at) / RFU PLEKHG5 (11737974_s_at) / Fold change /veh PLEKHG5 (11737974_s_at) / RFU LRRC4B (11730491_at) / Fold change /veh LRRC4B (11730491_at) / RFU GIMAP4 (11747438_a_at) / Fold change /veh GIMAP4 (11747438_a_at) / RFU KRT8 (11758183_x_at) / Fold change /veh KRT8 (11758183_x_at) / RFU CNN1 (11734310_a_at) / Fold change /veh CNN1 (11734310_a_at) / RFU VPS37D (11726825_at) / Fold change /veh VPS37D (11726825_at) / RFU C10orf10 (11716522_x_at) / Fold change /veh C10orf10 (11716522_x_at) / RFU KIR2DL2 /// KIR2DL4 /// KIR2DL5A /// KIR2DL5B /// KIR2DS1 /// KIR2DS2 /// KIR2DS3 /// KIR2DS4 /// KIR3DL3 /// KIR3DL3 /// KIR3DS1 (11738374_at) / Fold change /veh KIR2DL2 /// KIR2DL4 /// KIR2DL5A /// KIR2DL5B /// KIR2DS1 /// KIR2DS2 /// KIR2DS3 /// KIR2DS4 /// KIR3DL3 /// KIR3DL3 /// KIR3DS1 (11738374_at) / RFU C1QL1 (11718748_at) / Fold change /veh C1QL1 (11718748_at) / RFU TMPRSS4 (11747572_a_at) / Fold change /veh TMPRSS4 (11747572_a_at) / RFU HAMP (11756126_x_at) / Fold change /veh HAMP (11756126_x_at) / RFU RNFT2 (11725882_a_at) / Fold change /veh RNFT2 (11725882_a_at) / RFU NR4A2 (11747474_a_at) / Fold change /veh NR4A2 (11747474_a_at) / RFU ABCC12 (11746883_a_at) / Fold change /veh ABCC12 (11746883_a_at) / RFU TMEM136 (11760407_x_at) / Fold change /veh TMEM136 (11760407_x_at) / RFU CLDN22 /// WWC2 (11732394_at) / Fold change /veh CLDN22 /// WWC2 (11732394_at) / RFU HLA-DPB1 (11760878_x_at) / Fold change /veh HLA-DPB1 (11760878_x_at) / RFU SPINT1 (11716480_a_at) / Fold change /veh SPINT1 (11716480_a_at) / RFU GAP43 (11754022_s_at) / Fold change /veh GAP43 (11754022_s_at) / RFU A4GNT (11735810_at) / Fold change /veh A4GNT (11735810_at) / RFU PRB3 (11715151_x_at) / Fold change /veh PRB3 (11715151_x_at) / RFU TUBB4B (11761932_at) / Fold change /veh TUBB4B (11761932_at) / RFU CAPN14 (11732068_a_at) / Fold change /veh CAPN14 (11732068_a_at) / RFU TMCC2 (11721928_a_at) / Fold change /veh TMCC2 (11721928_a_at) / RFU IRGQ (11745062_a_at) / Fold change /veh IRGQ (11745062_a_at) / RFU FAM174B (11720279_a_at) / Fold change /veh FAM174B (11720279_a_at) / RFU TMPRSS4 (11748680_a_at) / Fold change /veh TMPRSS4 (11748680_a_at) / RFU FAM212B (11763350_a_at) / Fold change /veh FAM212B (11763350_a_at) / RFU PLEKHG5 (11743358_a_at) / Fold change /veh PLEKHG5 (11743358_a_at) / RFU ZSCAN30 (11745921_a_at) / Fold change /veh ZSCAN30 (11745921_a_at) / RFU CMKLR1 (11741424_a_at) / Fold change /veh CMKLR1 (11741424_a_at) / RFU LOC101060620 /// MAPK8IP1 (11723275_at) / Fold change /veh LOC101060620 /// MAPK8IP1 (11723275_at) / RFU SPTSSB (11747773_x_at) / Fold change /veh SPTSSB (11747773_x_at) / RFU PRSS12 (11739890_at) / Fold change /veh PRSS12 (11739890_at) / RFU BIN1 (11741810_x_at) / Fold change /veh BIN1 (11741810_x_at) / RFU WNT11 (11732464_a_at) / Fold change /veh WNT11 (11732464_a_at) / RFU C10orf10 (11716521_a_at) / Fold change /veh C10orf10 (11716521_a_at) / RFU C5orf56 (11738089_at) / Fold change /veh C5orf56 (11738089_at) / RFU CYB561 (11721691_x_at) / Fold change /veh CYB561 (11721691_x_at) / RFU ANKRD19P (11752326_a_at) / Fold change /veh ANKRD19P (11752326_a_at) / RFU OR2T12 /// OR2T33 /// OR2T8 (11738714_s_at) / Fold change /veh OR2T12 /// OR2T33 /// OR2T8 (11738714_s_at) / RFU VCAN (11748164_a_at) / Fold change /veh VCAN (11748164_a_at) / RFU JSRP1 (11732532_at) / Fold change /veh JSRP1 (11732532_at) / RFU KRTAP10-11 (11738290_x_at) / Fold change /veh KRTAP10-11 (11738290_x_at) / RFU MYO3A (11730013_a_at) / Fold change /veh MYO3A (11730013_a_at) / RFU EBF3 (11725865_a_at) / Fold change /veh EBF3 (11725865_a_at) / RFU CAMK2N1 (11719241_x_at) / Fold change /veh CAMK2N1 (11719241_x_at) / RFU C5orf56 (11738088_a_at) / Fold change /veh C5orf56 (11738088_a_at) / RFU OLFML3 (11715873_a_at) / Fold change /veh OLFML3 (11715873_a_at) / RFU LOC100653217 /// NTM (11731650_a_at) / Fold change /veh LOC100653217 /// NTM (11731650_a_at) / RFU MAPK11 (11762145_a_at) / Fold change /veh MAPK11 (11762145_a_at) / RFU FIZ1 (11724087_x_at) / Fold change /veh FIZ1 (11724087_x_at) / RFU OASL (11726364_x_at) / Fold change /veh OASL (11726364_x_at) / RFU SOX15 (11748057_x_at) / Fold change /veh SOX15 (11748057_x_at) / RFU CD79A (11719716_a_at) / Fold change /veh CD79A (11719716_a_at) / RFU HIST1H1D (11736915_at) / Fold change /veh HIST1H1D (11736915_at) / RFU CASKIN2 (11723855_a_at) / Fold change /veh CASKIN2 (11723855_a_at) / RFU LOC730098 (11760151_x_at) / Fold change /veh LOC730098 (11760151_x_at) / RFU OR4N2 (11742367_at) / Fold change /veh OR4N2 (11742367_at) / RFU PRRT2 (11749266_a_at) / Fold change /veh PRRT2 (11749266_a_at) / RFU SNX32 (11753110_a_at) / Fold change /veh SNX32 (11753110_a_at) / RFU CDHR5 (11726645_a_at) / Fold change /veh CDHR5 (11726645_a_at) / RFU RCAN1 (11760418_a_at) / Fold change /veh RCAN1 (11760418_a_at) / RFU FAM167A (11723789_a_at) / Fold change /veh FAM167A (11723789_a_at) / RFU FAM26E (11764081_at) / Fold change /veh FAM26E (11764081_at) / RFU ISYNA1 (11749810_s_at) / Fold change /veh ISYNA1 (11749810_s_at) / RFU ACY1 (11761880_at) / Fold change /veh ACY1 (11761880_at) / RFU 11764098_at / Fold change /veh 11764098_at / RFU SAMD14 (11745864_x_at) / Fold change /veh SAMD14 (11745864_x_at) / RFU NPB (11741838_a_at) / Fold change /veh NPB (11741838_a_at) / RFU TMPRSS6 (11731388_a_at) / Fold change /veh TMPRSS6 (11731388_a_at) / RFU KRTAP10-2 (11738614_at) / Fold change /veh KRTAP10-2 (11738614_at) / RFU ARHGAP8 /// PRR5-ARHGAP8 (11727945_x_at) / Fold change /veh ARHGAP8 /// PRR5-ARHGAP8 (11727945_x_at) / RFU KRTAP5-7 /// NADSYN1 (11734609_at) / Fold change /veh KRTAP5-7 /// NADSYN1 (11734609_at) / RFU RASL12 (11751679_a_at) / Fold change /veh RASL12 (11751679_a_at) / RFU CDKN2B (11736163_a_at) / Fold change /veh CDKN2B (11736163_a_at) / RFU PRF1 (11729649_at) / Fold change /veh PRF1 (11729649_at) / RFU, ZNF638 /// ZNF638-IT1 / Fold change vs veh, ZNF638 /// ZNF638-IT1 / RFU, PANK3 / Fold change vs veh, PANK3 / RFU, SH3YL1 / Fold change vs veh, SH3YL1 / RFU, ZEB2 / Fold change vs veh, ZEB2 / RFU, NRIP1 / Fold change vs veh, NRIP1 / RFU, PTTG1IP / Fold change vs veh, PTTG1IP / RFU, CAPN2 / Fold change vs veh, CAPN2 / RFU, MED14 / Fold change vs veh, MED14 / RFU, SNORA58 / Fold change vs veh, SNORA58 / RFU, C1orf63 / Fold change vs veh, C1orf63 / RFU, LRRFIP1 / Fold change vs veh, LRRFIP1 / RFU, NDUFAF7 / Fold change vs veh, NDUFAF7 / RFU, SLC12A2 / Fold change vs veh, SLC12A2 / RFU, IBTK / Fold change vs veh, IBTK / RFU, ESF1 / Fold change vs veh, ESF1 / Fold change vs veh, TMEM50B / RFU, TAOK1 / Fold change vs veh, TAOK1 / RFU, ACBD3 / Fold change vs veh, ACBD3 / RFU, TMA16 / Fold change vs veh, TMA16 / RFU, RWDD3 / Fold change vs veh, RWDD3 / RFU, BCAT1 / Fold change vs veh, BCAT1 / RFU, EDEM3 / Fold change vs veh, EDEM3 / RFU, TMEM33 / Fold change vs veh, TMEM33 / RFU, WDR75 / Fold change vs veh, WDR75 / RFU, AHCTF1 / Fold change vs veh, AHCTF1 / RFU, TFRC / Fold change vs veh, TFRC / RFU, ZDHHC17 / Fold change vs veh, ZDHHC17 / RFU, NOM1 / Fold change vs veh, NOM1 / RFU, ARL8B / Fold change vs veh, ARL8B / RFU, ZBTB11 / Fold change vs veh, ZBTB11 / RFU, TAMM41 / Fold change vs veh, TAMM41 / RFU, KIAA1704 /// LOC100996395 / Fold change vs veh, KIAA1704 /// LOC100996395 / RFU, ING1 / Fold change vs veh, ING1 / RFU, TRMT61B / Fold change vs veh, TRMT61B / RFU, FUBP3 / Fold change vs veh, FUBP3 / RFU, TP53 / Fold change vs veh, TP53 / RFU, TNKS2 / Fold change vs veh, TNKS2 / RFU, ZFP14 / Fold change vs veh, ZFP14 / RFU, ACTR2 / Fold change vs veh, ACTR2 / RFU, PPP3R1 / Fold change vs veh, PPP3R1 / RFU, PIK3R1 / Fold change vs veh, PIK3R1 / RFU, HNRNPA1 / Fold change vs veh, HNRNPA1 / RFU, RNF170 / Fold change vs veh, RNF170 / RFU, ZNF28 / Fold change vs veh, ZNF28 / RFU, RNGTT / Fold change vs veh, RNGTT / RFU, OGT / Fold change vs veh, OGT / RFU, BRD1 / Fold change vs veh, BRD1 / RFU, MARS / Fold change vs veh, MARS / RFU, ZNF655 / Fold change vs veh, ZNF655 / RFU, FAHD1 / Fold change vs veh, FAHD1 / RFU, BDP1 / Fold change vs veh, BDP1 / RFU, LRRCC1 / Fold change vs veh, LRRCC1 / RFU, ARID1A / Fold change vs veh, ARID1A / RFU, ZNF146 / Fold change vs veh, ZNF146 / RFU, ZNF330 / Fold change vs veh, ZNF330 / RFU, GPN3 / Fold change vs veh, GPN3 / RFU, C9orf123 / Fold change vs veh, C9orf123 / RFU, N4BP2L2 / Fold change vs veh, N4BP2L2 / RFU, ARFIP1 / Fold change vs veh, ARFIP1 / RFU, FAM179B / Fold change vs veh, FAM179B / RFU, BCL10 / Fold change vs veh, BCL10 / RFU, UHRF1BP1L / Fold change vs veh, UHRF1BP1L / RFU, BET1 / Fold change vs veh, BET1 / RFU, CNOT2 / Fold change vs veh, CNOT2 / RFU, ZNF268 / Fold change vs veh, ZNF268 / Fold change vs veh, ZNF507 / RFU, DGCR2 / Fold change vs veh, DGCR2 / RFU, WDSUB1 / Fold change vs veh, WDSUB1 / Fold change vs veh, HSP90B1 /// MIR3652 / RFU, ADSS / Fold change vs veh, ADSS / RFU, GK / Fold change vs veh, GK / RFU, ZNF148 / Fold change vs veh, ZNF148 / RFU, TAF9 / Fold change vs veh, TAF9 / RFU, SLC1A5 / Fold change vs veh, SLC1A5 / RFU, SLMO2 / Fold change vs veh, SLMO2 / RFU, ABCC4 / Fold change vs veh, ABCC4 / RFU, LOC101060439 /// RAP1B / Fold change vs veh, LOC101060439 /// RAP1B / RFU, RFX7 / Fold change vs veh, RFX7 / RFU, GTPBP10 / Fold change vs veh, GTPBP10 / RFU, CNEP1R1 / Fold change vs veh, CNEP1R1 / RFU, BIVM-ERCC5 /// ERCC5 / Fold change vs veh, BIVM-ERCC5 /// ERCC5 / RFU, ILF3 / Fold change vs veh, ILF3 / RFU 11762660_at / Fold change /veh 11762660_at / RFU VCAN (11757783_s_at) / Fold change /veh VCAN (11757783_s_at) / RFU DDX43 (11728927_at) / Fold change /veh DDX43 (11728927_at) / RFU KRT8 (11758188_x_at) / Fold change /veh KRT8 (11758188_x_at) / RFU NKD1 (11759106_at) / Fold change /veh NKD1 (11759106_at) / RFU SRD5A1 (11742802_a_at) / Fold change /veh SRD5A1 (11742802_a_at) / RFU TPSAB1 /// TPSB2 (11721975_s_at) / Fold change /veh TPSAB1 /// TPSB2 (11721975_s_at) / RFU GSTM3 (11746129_a_at) / Fold change /veh GSTM3 (11746129_a_at) / RFU IL23R (11737362_x_at) / Fold change /veh IL23R (11737362_x_at) / RFU TMEM51 (11727254_a_at) / Fold change /veh TMEM51 (11727254_a_at) / RFU PIWIL2 (11732686_x_at) / Fold change /veh PIWIL2 (11732686_x_at) / RFU ORM1 (11744905_x_at) / Fold change /veh ORM1 (11744905_x_at) / RFU CCDC152 (11743942_at) / Fold change /veh CCDC152 (11743942_at) / RFU ECM1 (11717891_a_at) / Fold change /veh ECM1 (11717891_a_at) / RFU IL23R (11748794_a_at) / Fold change /veh IL23R (11748794_a_at) / RFU TNFAIP8L3 (11732012_x_at) / Fold change /veh TNFAIP8L3 (11732012_x_at) / RFU MBOAT4 (11741988_at) / Fold change /veh MBOAT4 (11741988_at) / RFU 11764193_at / Fold change /veh 11764193_at / RFU TMEM53 (11763286_at) / Fold change /veh TMEM53 (11763286_at) / RFU MAGEB2 (11727129_at) / Fold change /veh MAGEB2 (11727129_at) / RFU TMEM200A (11744735_a_at) / Fold change /veh TMEM200A (11744735_a_at) / RFU CCDC152 (11751479_a_at) / Fold change /veh CCDC152 (11751479_a_at) / RFU FAM211A (11726209_a_at) / Fold change /veh FAM211A (11726209_a_at) / RFU RGS16 (11746705_a_at) / Fold change /veh RGS16 (11746705_a_at) / RFU VCAN (11755009_s_at) / Fold change /veh VCAN (11755009_s_at) / RFU RHOB (11743442_s_at) / Fold change /veh RHOB (11743442_s_at) / RFU RGS16 (11720943_a_at) / Fold change /veh RGS16 (11720943_a_at) / RFU RGS16 (11720944_at) / Fold change /veh RGS16 (11720944_at) / RFU, VPS4B / Fold change vs veh, VPS4B / RFU, CREB1 / Fold change vs veh, CREB1 / RFU, DNAJC13 / Fold change vs veh, DNAJC13 / RFU, GNAQ / Fold change vs veh, GNAQ / RFU, CDK5R1 / Fold change vs veh, CDK5R1 / RFU, ZRANB3 / Fold change vs veh, ZRANB3 / RFU, CUL4A / Fold change vs veh, CUL4A / RFU, CCNY / Fold change vs veh, CCNY / RFU, UFL1 / Fold change vs veh, UFL1 / RFU, COG3 / Fold change vs veh, COG3 / RFU, DIAPH2 / Fold change vs veh, DIAPH2 / RFU, SKA2 / Fold change vs veh, SKA2 / RFU, AFF3 / Fold change vs veh, AFF3 / RFU, LMF1 / Fold change vs veh, LMF1 / RFU, IPO11 / Fold change vs veh, IPO11 / RFU, DFFB / Fold change vs veh, DFFB / RFU, FOXP1 / Fold change vs veh, FOXP1 / RFU, CARD8 / Fold change vs veh, CARD8 / RFU, STRN3 / Fold change vs veh, STRN3 / RFU, ADK / Fold change vs veh, ADK / RFU, RASSF2 / Fold change vs veh, RASSF2 / RFU, WIPF1 / Fold change vs veh, WIPF1 / RFU, LARP1B / Fold change vs veh, LARP1B / RFU, RASA1 / Fold change vs veh, RASA1 / RFU, RB1 / Fold change vs veh, RB1 / RFU, PPFIA1 / Fold change vs veh, PPFIA1 / RFU, MAT2A / Fold change vs veh, MAT2A / RFU, CCT5 / Fold change vs veh, CCT5 / RFU, WDR92 / Fold change vs veh, WDR92 / RFU, CUX1 / Fold change vs veh, CUX1 / RFU, TTC7A / Fold change vs veh, TTC7A / RFU, TMEM135 / Fold change vs veh, TMEM135 / RFU, DEPTOR / Fold change vs veh, DEPTOR / RFU, CPM / Fold change vs veh, CPM / RFU, DNAJB6 / Fold change vs veh, DNAJB6 / RFU, CACNA2D3 / Fold change vs veh, CACNA2D3 / RFU, DTX4 / Fold change vs veh, DTX4 / RFU, TFCP2 / Fold change vs veh, TFCP2 / RFU, GMCL1 /// GMCL1P1 / Fold change vs veh, GMCL1 /// GMCL1P1 / RFU, AEBP2 / Fold change vs veh, AEBP2 / RFU, SNHG1 /// SNORD22 /// SNORD25 /// SNORD26 /// SNORD27 /// SNORD28 /// SNORD29 /// SNORD31 / Fold change vs veh, SNHG1 /// SNORD22 /// SNORD25 /// SNORD26 /// SNORD27 /// SNORD28 /// SNORD29 /// SNORD31 / Fold change (Aza/veh), C12orf56 (ProbeSet 11735607_a_at) / Fold change (ACY-1035/veh), C12orf56 (ProbeSet 11735607_a_at) / Fold change (Aza/veh), FGFR1OP (ProbeSet 11751329_s_at) / Fold change (ACY-1035/veh), FGFR1OP (ProbeSet 11751329_s_at) / Fold change (Aza/veh), VPS36 (ProbeSet 11739960_a_at) / Fold change (ACY-1035/veh), VPS36 (ProbeSet 11739960_a_at) / RFU SYPL1 (11715823_x_at) / Fold change /veh SYPL1 (11715823_x_at) / RFU IGFBP7 (11715501_s_at) / Fold change /veh IGFBP7 (11715501_s_at) / RFU REEP3 (11722064_at) / Fold change /veh REEP3 (11722064_at) / RFU IGLL1 (11728026_x_at) / Fold change /veh IGLL1 (11728026_x_at): dose or concentration left out as unconfirmed
Conditions: ProbeSet 11748670_a_at; LIST B

Nc1ncn([C@@H]2O[C@H](CO)[C@@H](O)[C@H]2O)c(=O)n1 [azacitidine]
Fold change vs veh, PIK3R1: 1.03
